Data taken from patent US20250235501A1, “Methods and Compositions for Treating or Preventing Neurological Injury or Neurological Disorders” (University of Connecticut, priority 2024, published 2025).

Tests used:
[1] = test system: NMDARs; experiment: NMDAR currents in cultured cortical neurons of WT and TRPM2-KO mice (whole cell recording); assay type: cell-based, mouse
Method: FIGS. 4O and 4P show the effects of stausporine on NMDAR currents recorded from cortical neurons cultured for 14 days. FIG. 4O show representative NMDAR currents elicited at −80 mV by 10 μM NMDA in WT and TRPM2-KO (gM2KO) neurons treated with or without Stausporine at 1 μM for overnight. FIG. 4P show the average current amplitude (ns, p>0.05; **, p<0.01; ANOVA, Bonferroni's test; mean±SEM, n=11, 10, 10, 12 neurons from 2 mice respectively).
FIG. 4S show representative NMDAR currents elicited by NMDA in WT and TRPM2-KO neurons treated with or without endosidin2 at 1 μM for overnight.
FIGS. 5I-5K show the effects of TAT-EE3 on PKC induced changes of NMDAR currents recorded in cortical neurons of WT and TRPM2-KO. Neurons were incubated with 10 μM TAT-SC or TAT-EE3 for overnight before current recording. FIG. 5I show representative NMDAR currents elicited by 10 μM NMDA at −80 mV before and after PMA (1 μM) perfusion for 20 s. TAT-SC or TAT-EE3 10 μM was included in the pipette solution for current recording.
FIGS. 6A and 6B show the effects of TAT-EE3 on NMDAR currents in WT and gM2KO cortical neurons cultured for 14 days. […] TAT-SC or TAT-EE3 10 μM was included in the pipette solution during current recording.
Mice pups at P0 were euthanized based on animal protocol. Whole brain was dissected out immediately and immersed in ice-cold Hank's Balanced Salt Solution (HBSS). Meninges were removed thoroughly, and tissue of different brain areas was taken based on purposes. Brain tissue was cut into small pieces and digested with 0.25% trypsin (Thermal Fisher Scientific, 15090-046) in HBSS at 37° C. for 20 min. Digestion solution was quickly removed, and tissue pellets are washed with Neurobasal® Medium (Thermal Fisher Scientific, 21103-049) for 3 times. Cells were resuspended with appropriate amount of Neurobasal® Medium supplemented with 2% B27® supplement (Thermal Fisher Scientific, 17504-044), 3% horse serum (Thermal Fisher Scientific, 16050114), 0.25% L-glutamine (Thermal Fisher Scientific, 25030-081) and 1% penicillin/streptomycin (Thermal Fisher Scientific, 15140-122). Isolated cells were counted and plated on coverslips pre-coated with poly-L-lysine (Sigma-Aldrich, P4707) at a density about 500×10^3 cells/cm2 for OGD and H2O2 treatment, and 100×10^3 cells/cm2 for current recording. Cytosine arabinoside (Sigma-Aldrich, C1768) was added to maintain a concentration at 1 μM to inhibit the proliferation of non-neuronal cells. 24 h after plating, culture medium was changed to Neurobasal® Medium supplemented with 2% B27® supplement, 0.25% L-glutamine and 1% penicillin/streptomycin. The concentration of Cytosine arabinoside (araC) was increased to 2 μM. Medium was changed every 3 days. OGD and H2O2 treatment was conducted at 7th day of culture, and current recording was conducted at 7th, 10th and 14th day of culture.
Whole cell currents were recorded using an Axopatch 200B amplifier. Data were digitized at 10 or 20 kHz and digitally filtered offline at 1 kHz. Patch electrodes were pulled from borosilicate glass and fire-polished to a resistance of ˜3 MΩ when filled with internal solutions. Series resistance (Rs) was compensated up to 90% to reduce series resistance errors to <5 mV. Cells in which Rs was >10 MΩ were discarded (Du, J., Xie, J., and Yue, L. (2009). Modulation of TRPM2 by acidic pH and the underlying mechanisms for pH sensitivity. J Gen Physiol 134, 471-88).
For heterologous expression, transfected HEK-293 cells were identified by GFP fluorescence. TRPM2 current recording in transfected HEK-293T cells was performed as we previously reported (Du, J., Xie, J., and Yue, L. (2009). Intracellular calcium activates TRPM2 and its alternative spliced isoforms. Proceedings of the National Academy of Sciences 107, 7239-44; Du, J., Xie, J., and Yue, L. (2009). Modulation of TRPM2 by acidic pH and the underlying mechanisms for pH sensitivity. J Gen Physiol 134, 471-88). […]

[2] = test system: MCAO mice; experiment: Middle cerebral artery occlusion (MCAO) ischemic stroke model; assay type: in vivo, mouse
[3] = test system: cultured cortical neurons; experiment: Mitochondrial function under OGD, Rh123 de-quenching assay; assay type: cell-based, mouse; settings: WT neurons; 10 μM peptide overnight; 30 min OGD
Method: FIGS. 6F-6G show the effects of TAT-EE3 on mitochondrial function evaluated using R123 de-quenching assay. Cultured cortical from gM2KO mice, nM2KO mice and WT control littermates were incubated with 10 μM TAT-SC or TAT-EE3 for overnight before OGD exposure. […] External perfusion solution aCSF containing no Ca2+ (No Ca2+) was used as a control. WT neuron without OGD exposure was used as a control (WT control) to illustrate the rapid photo bleaching of Rh123. […] The accumulated numbers of neurons in each group for data analysis were from 3˜5 independent experiments using neurons isolated from 3 mice/group (***, p<0.001; ANOVA, Bonferroni's test; mean±SEM).
Mice pups at P0 were euthanized based on animal protocol. Whole brain was dissected out immediately and immersed in ice-cold Hank's Balanced Salt Solution (HBSS). […] Isolated cells were counted and plated on coverslips pre-coated with poly-L-lysine (Sigma-Aldrich, P4707) at a density about 500×10^3 cells/cm2 for OGD and H2O2 treatment, and 100×10^3 cells/cm2 for current recording. […]
Mitochondria function was evaluated using Rhodamine-123 dequenching as previously reported. […]
Fluorescence intensities at 509 nm with excitation at 488 nm was collected every 15 s for 30 min using CoolSNAP HQ2 (Photometrics) and data were analyzed using NIS-Elements (Nikon).

[4] = WT neurons incubated with 10 μM peptide overnight, PMA 1 μM 20 s
[5] = 100 nmol/kg ip 15 mins before MCAO, 24 hrs after MCAO, vs TAT-SC-treated mice
[6] = 1 h MCAO, administered every 12 h, day 1, day 3, and day 7
[7] = FIGS. 18C-18E, pre-MCAO administration i.p. 30 min before MCAO
[8] = post-MCAO treatment, injected right before reopening of the MCA, WT mice

TAT-EE3: membrane permeable disrupting peptide, sequence YGRKKRRQRRREEDTDSSEEMLALAEE (SEQ ID NO: 4)
NMDAR currents in neurons from TRPM2-KO mice ([1]; 10 μM peptide overnight and in pipette, neurons cultured 14 days): not from TRPM2-KO mice
NMDAR currents in neurons from WT mice ([1]; 10 μM peptide overnight and in pipette, neurons cultured 14 days, 10 μM NMDA, -80 mV): efficiently reduced
NMDAR current amplitude before and after PMA perfusion [1, 4]: much smaller
increase of NMDAR current amplitude induced by PMA [1, 4]: significantly smaller than that in neurons incubated with TAT-SC
PMA-induced changes of NMDAR currents, TAT-SC vs TAT-EE3 ([1]; neurons from TRPM2-KO mice, 10 μM peptide overnight): no difference
infarct volume [2, 5]: significantly reduced
neurological behavior scores [2, 5]: improved
ND scores, long-term MCAO (7 days) [2, 6]: improved
latency to fall time (rotarod test), long-term MCAO [2, 6]: inhibited the reduction
infarct volume [2, 7]: reduced
neurological deficit (ND) score [2, 7]: improved
ND score [2, 8]: improved
infarct volume [2, 8]: reduced
protective effects in nM2KO mice ([2]; post-MCAO treatment, neuron-specific TRPM2 knockout mice): did not produce further protective effects
mitochondrial membrane depolarization induced by OGD (Rh123 fluorescence) [3]: markedly inhibited
